Measured values as given in ChEMBL document CHEMBL5550084, “Ferroptosis and its modulators: A raising target for cancer and Alzheimer's disease” (Bioorg Med Chem, 2024).

Legend:
[1] = Growth inhibition of human BJeLR cell by Trypan blue staining based analysis; type: toxicity; details: BJeLR cells
[2] = target: T1, Cystine/glutamate transporter (Homo sapiens, UniProt Q9UPY5); assay: Inhibition of Xc- in human HT-1080 cells assessed as decrease in glutamate release incubated for 2 hrs by Amplex red assay; type: cell-based
T1 sequence (Q9UPY5 whole entry): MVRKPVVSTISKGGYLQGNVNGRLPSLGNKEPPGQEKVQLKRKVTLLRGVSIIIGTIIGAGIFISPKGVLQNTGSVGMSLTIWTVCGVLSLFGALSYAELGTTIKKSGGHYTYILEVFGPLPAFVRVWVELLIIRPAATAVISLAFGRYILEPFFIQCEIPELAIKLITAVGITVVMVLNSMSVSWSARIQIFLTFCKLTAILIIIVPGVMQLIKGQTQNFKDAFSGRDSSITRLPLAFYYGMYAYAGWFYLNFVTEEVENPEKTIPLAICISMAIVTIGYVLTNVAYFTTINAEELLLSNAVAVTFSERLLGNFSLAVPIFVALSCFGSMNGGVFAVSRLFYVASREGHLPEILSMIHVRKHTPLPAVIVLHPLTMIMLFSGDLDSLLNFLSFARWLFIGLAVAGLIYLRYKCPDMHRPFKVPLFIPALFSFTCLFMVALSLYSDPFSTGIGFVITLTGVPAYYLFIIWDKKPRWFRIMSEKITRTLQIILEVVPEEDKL

SMILES | GI50 [1] [nM] | IC50 [2] [nM]
CC(C)Oc1ccc(CN2CCNCC2)cc1-n1c(CN2CCN(C(=O)COc3ccc(Cl)cc3)CC2)nc2ccccc2c1=O | 0.9 | –
CC(C)Oc1ccc(C=O)cc1-n1c(CN2CCN(C(=O)COc3ccc(Cl)cc3)CC2)nc2ccccc2c1=O | 8 | –
CC(C)Oc1ccc(C(=O)CN2CCN(C)CC2)cc1-n1c(CN2CCN(C(=O)COc3ccc(Cl)cc3)CC2)nc2ccccc2c1=O | 474 | 300
CC(C)Oc1ccc(C(=O)CN2CCOCC2)cc1-n1c(CN2CCN(C(=O)COc3ccc(Cl)cc3)CC2)nc2ccccc2c1=O | 427 | 10
CC(C)Oc1ccc(CN2CCOCC2)cc1-n1c(CN2CCN(C(=O)COc3ccc(Cl)cc3)CC2)nc2ccccc2c1=O | 0.13 | –
CC(C)Oc1ccncc1-n1c(CN2CCN(C(=O)COc3ccc(Cl)cc3)CC2)nc2ccccc2c1=O | > 10 | –
CCOc1ccccc1-n1c(C(C)N2CCN(C(=O)COc3ccc(Cl)cc3)CC2)nc2ccccc2c1=O (centres undefined) [ERASTIN] | 1.7 | –
